Series [1] deals with ATG4B-mediated basal autophagy in F508del-CFTR-expressing CFBE41o– cells. Kind of series: Labeling of autophagic vacuoles with monodansylcadaverine (MDC). It counts as cell-based, human. The settings on record: test compounds 5 μM 24 h; torin-1 20 nM and SAR-405 2 μM in the last 3 h. The text has this: To further support our hypothesis that CFTR rescue following treatment with test compounds was indeed due to RNF5 inhibition, we considered additional biological processes known to be regulated by RNF5 ligase activity. To this aim, we focused our attention on ATG4B, a known regulator of basal autophagy, whose degradation is mediated by RNF5 activity.[54]In vivo ubiquitination experiments previously confirmed that inh-2 inhibits ATG4B degradation, thus increasing the basal level of autophagy.[40] […] We thus evaluated the effect of inh-2 analogues on induction of the autophagy pathway. To this aim, we monitored the formation of autophagic vacuoles in F508del-CFTR-expressing CFBE41o^– cells (Figure 8) by using the autolysosome marker monodansylcadaverine (MDC). MDC accumulates inside autophagosomes. After fusion of autophagosomes with lysosomes, MDC fluorescence increases due to the acidic environment.[55] Therefore, F508del-CFTR-expressing CFBE41o^– cells were treated for 24 h with test compounds (5 μM), VX-809 (1 μM), or DMSO alone (vehicle). In the last 3 h of incubation, we added torin-1 (20 nM), a known autophagy inducer, and SAR-405 (2 μM), a potent inhibitor of the autophagic pathway. The cells were then loaded with MDC and evaluated by high-content confocal imaging to detect signal spots (corresponding to autophagic vacuoles) in each cell.
CFBE41o^– cells stably expressing F508del-CFTR and the HS-YFP were plated (50,000 cells/well) on good-quality clear-bottom 96-well black microplates suitable for high-content imaging. After 24 h, cells were treated with test compounds or DMSO (as the negative control). […] After 24 h, cells were incubated with 50 μM MDC (Sigma-Aldrich) in PBS at 37 °C for 10 min.[62] After incubation, cells were washed three times with PBS and immediately analyzed. High-content imaging and data analysis were performed using the Opera Phenix (PerkinElmer) high-content screening system. Wells were imaged in confocal mode using a 40× water-immersion objective. The MDC signal was laser-excited at 405 nm, and the emission wavelengths were collected between 435 and 550 nm. Data analysis of MDC spot number was performed using the Harmony software (ver 4.5) of the Opera Phenix high-content system. Data are expressed as means ± SEM, n = 3 independent experiments. Statistical significance was tested by parametric ANOVA followed by the Dunnet multiple comparisons test (all groups against the control group).

Series [2] deals with CFBE41o– cells. Kind of series: Apoptosis assay (Hoechst 33342 / propidium iodide, high-content imaging). It counts as cell-based, human. Here is the method: We performed a preliminary evaluation of the effect of chronic treatment with selected analogues on the proliferation and apoptosis of CFBE41o^– cells (Figure 7). Indeed, RNF5 can modulate cell motility and proliferation by regulating paxillin ubiquitylation and thus its degradation.[53] For the proliferation assay, CFBE41o^– cells stably co-expressing F508del-CFTR and the HS-YFP were treated with test compounds (5 μM), VX-809 (1 μM), or vehicle alone (DMSO) for 48 h. Cell proliferation was then monitored by measuring the area covered by the cells based on the YFP signal. For the apoptosis assay, 24 h after plating, CFBE41o^– cells stably expressing F508del-CFTR were treated with test compounds (5, 20, and 100 μM), VX-809 (1 μM), MG132 (50 μM), or vehicle alone (DMSO) for 24 h. Cell nuclei were then counterstained with Hoechst 33342 and propidium iodide to visualize the total and apoptotic cell count, respectively, and imaged by using an Opera Phenix high-content screening system.
CFBE41o^– cells stably expressing F508del-CFTR and the HS-YFP were plated at a low density (5000 cell/well) on 96-well plates suitable for high-content imaging. […] Cell proliferation was monitored (by exploiting the YFP signal to determine the area covered by cells) for 48 h using the Opera Phenix (PerkinElmer) high-content screening system. […] Data are expressed as means ± SEM, n = 6. […]

SMILES strings stand for the structures. “Also recorded” adds a separate entry of the source.

Take `Cc1ns/c(=N\C(=N\c2ccccc2)c2ccccc2)n1Cc1ccccc1` [inh-2, reference compound]: the “number of autophagic vacuoles (MDC signal spots)” value in series [1] is on record as “significantly increased”.
Turning to `COc1cccc(Cn2c(C)ns/c2=N\C(=N\c2ccccc2)c2ccccc2)c1` [Compound 16, (E)-N-((Z)-4-(3-Methoxybenzyl)-3-methyl-1,2,4-thiadiazol-5(4H)-ylidene)-N′-phenylbenzimidamide], the “effect on cell proliferation and apoptosis (tolerability)” value in series [2] is “good tolerability and no toxic side effects”. In addition, the “number of autophagic vacuoles (MDC signal spots)” value in series [1] is reported as “significantly increased; also recorded: strong activation of basal autophagy”.

Values taken from PMC10388311, “Innovative Strategy toward Mutant CFTR Rescue in Cystic Fibrosis: Design and Synthesis of Thiadiazole Inhibitors of the E3 Ligase RNF5” (Journal of Medicinal Chemistry, 2023).
